Data from patent US8835462B2, “Macrocyclic picolinamides as fungicides” (Dow AgroSciences LLC, priority 2012, dated 2014).
Read-outs that look alike come from different tables or passages of the source.

Experiments:
[1] = tested on: Mycosphaerella graminicola; Anamorph: Septoria tritici; test: Leaf blotch of wheat (SEPTTR) fungicidal activity on wheat seedlings; assay type: in vivo; details: Zymoseptoria tritici
Protocol: Evaluation of Fungicidal Activity: Leaf Blotch of Wheat (Mycosphaerella Graminicola; Anamorph: Septoria tritici; Bayer Code […]) Technical grades of materials were dissolved in acetone, which were then mixed with nine volumes of water containing 110 ppm Triton X-100. The fungicide solutions were applied onto wheat seedlings using an automated booth sprayer to run-off. All sprayed plants were allowed to air dry prior to further handling. Wheat plants (variety Yuma) were grown from seed in a greenhouse in 50% mineral soil/50% soil-less Metro mix until the first leaf was fully emerged, with 7-10 seedlings per pot. These plants were inoculated with an aqueous spore suspension of Septoria tritici either prior to or after fungicide treatments. After inoculation the plants were kept in 100% relative humidity (one day in a dark dew chamber followed by two to three days in a lighted dew chamber at 20° C.) to permit spores to germinate and infect the leaf. The plants were then transferred to a greenhouse set at 20° C. for disease to develop. When disease symptoms were fully expressed on the 1st leaves of untreated plants, infection levels were assessed on a scale of 0 to 100 percent disease severity. Percent disease control was calculated using the ratio of disease severity on treated plants relative to untreated plants.

[2] = tested on: Puccinia triticina; test: Wheat brown rust (PUCCRT) fungicidal activity on wheat seedlings; assay type: in vivo
Protocol: Technical grades of materials were dissolved in acetone, which were then mixed with nine volumes of water containing 110 ppm Triton X-100. The fungicide solutions were applied onto wheat seedlings using an automated booth sprayer to run-off. All sprayed plants were allowed to air dry prior to further handling. Wheat plants (variety Yuma) were grown from seed in a greenhouse in 50% mineral soil/50% soil-less Metro mix until the first leaf was fully emerged, with 7-10 seedlings per pot. These plants were inoculated with an aqueous spore suspension of Septoria tritici either prior to or after fungicide treatments. After inoculation the plants were kept in 100% relative humidity (one day in a dark dew chamber followed by two to three days in a lighted dew chamber at 20° C.) to permit spores to germinate and infect the leaf. The plants were then transferred to a greenhouse set at 20° C. for disease to develop. When disease symptoms were fully expressed on the 1st leaves of untreated plants, infection levels were assessed on a scale of 0 to 100 percent disease severity. Percent disease control was calculated using the ratio of disease severity on treated plants relative to untreated plants. Evaluation of Fungicidal Activity: Wheat Brown Rust (Puccinia triticina; Synonym: Puccinia recondita f. sp. tritici; Bayer Code PUCCRT) Wheat plants (variety Yuma) were grown from seed in a greenhouse in 50% mineral soil/50% soil-less Metro mix until the first leaf was fully emerged, with 7-10 seedlings per pot. These plants were inoculated with an aqueous spore suspension of Puccinia triticina either prior to or after fungicide treatments. After inoculation the plants were kept in a dark dew room at 22° C. with 100% relative humidity overnight to permit spores to germinate and infect the leaf. The plants were then transferred to a greenhouse set at 24° C. for disease to develop. Fungicide formulation, application and disease assessment followed the procedures as described in the Example A.

[3] = tested on: Puccinia triticina; test: Fungicide mobility (dropline mobility test), wheat brown rust (PUCCRT); assay type: in vivo; details: 1 ug/leaf, disease-free zone as percent of distance from marked line to leaf tip; for Dropline Mobility Test PUCCRT 1 DPM: 1 Day Protectant Mobility; for Dropline Mobility Test PUCCRT 3 DCM: 3 Day Curative Mobility
Protocol: Evaluation of Fungicide Mobility: Wheat Brown Rust (Puccinia Triticina; Synonym: Puccinia recondita f. sp. Tritici; Bayer Code PUCCRT):
“Yuma” wheat seedlings were used in the test. One mg of compound was dissolved in 9 μl of EC blank (emulsifiable concentrate) and 500 μl of acetone. Acetone was then evaporated overnight by leaving the vial open in a fume hood. Two milliliters of water containing 110 ppm Triton X-100 was added to each vial to prepare application solutions. A […] drop of formulated material was applied to a marked line on the adaxial surface 5 cm from the leaf tip of the primary leaves. The primary leaves were kept in a horizontal position. Each treatment had 6 replicates. Plants were inoculated with PUCCRT 1-day after (1DPM) or 3-day prior to (3DCM) compound applications. When rust was fully expressed on primary leaves on control plants, the zone of treated leaves that was disease-free in the acropetal direction was measured with a ruler and converted to percent of the distance from marked line to leaf tip.

[4] = 24 h, 1 Day Protectant, read-out: Disease Control SEPTTR 1 DP
[5] = 72 h, 3 Day Curative, read-out: Disease Control SEPTTR 3 DC
[6] = 24 h, 1 Day Protectant, read-out: Disease Control PUCCRT 1 DP
[7] = 72 h, 3 Day Curative, read-out: Disease Control PUCCRT 3 DC

Row | Structure (SMILES) | pest or weed control at 100 ppm [1, 4] | pest or weed control at 100 ppm [1, 5] | pest or weed control at 100 ppm [2, 6] | pest or weed control at 100 ppm [2, 7] | Dropline Mobility Test PUCCRT 1 DPM [3] | Dropline Mobility Test PUCCRT 3 DCM [3] | melting point
1 | COc1ccnc(C(=O)N[C@H]2COC[C@H](Cc3ccccc3)[C@@H](OC(=O)C(C)C)[C@H](C)OC2=O)c1O [Compound 1] | 80 to 100% | 80 to 100% | 80 to 100% | 80 to 100% | B (More than 0-Less than 80) | B (More than 0-Less than 80) | 66 to 70 °C
2 | COc1ccnc(C(=O)N[C@H]2COC[C@H](CC3CCCCC3)[C@@H](OCC(C)C)[C@H](C)OC2=O)c1O [Compound 4, N-((3S,7S,8R,9S)-7-(cyclohexylmethyl)-8-isobutoxy-9-methyl-2-oxo-1,5-dioxonan-3-yl)-3-hydroxy-4-methoxypicolinamide] | 80 to 100% | 80 to 100% | 80 to 100% | 80 to 100% |  |  | 89 to 92 °C
3 | C=C(C)CO[C@@H]1[C@@H](Cc2ccccc2)COC[C@H](NC(=O)c2nccc(OC)c2O)C(=O)O[C@H]1C [Compound 6] | 80 to 100% | 0 to 80% | 80 to 100% | 80 to 100% |  |  | 96 to 104 °C
4 | CCCO[C@@H]1[C@@H](Cc2ccccc2)COC[C@H](NC(=O)c2nccc(OC)c2O)C(=O)O[C@H]1C [Compound 17] | 80 to 100% | 80 to 100% | 80 to 100% | 80 to 100% | B (More than 0-Less than 80) | B (More than 0-Less than 80) | 102 to 104 °C
5 | CCCC(C)O[C@@H]1[C@@H](Cc2ccccc2)COC[C@H](NC(=O)c2nccc(OC)c2O)C(=O)O[C@H]1C (stereo partly shown) [Compound 19] | 80 to 100% | 80 to 100% | 80 to 100% | 80 to 100% | B (More than 0-Less than 80) |  | 52 to 56 °C
6 | CCCCCO[C@@H]1[C@@H](Cc2ccccc2)COC[C@H](NC(=O)c2nccc(OC)c2O)C(=O)O[C@H]1C [Compound 21] | 0 to 80% | 0 to 80% | 80 to 100% | 0 to 80% | B (More than 0-Less than 80) |  | 51 to 56 °C
7 | COc1ccnc(C(=O)N[C@H]2COC[C@H](Cc3ccccc3)[C@@H](OC)[C@H](C)OC2=O)c1O [Compound 32] | 0 to 80% | 80 to 100% | 80 to 100% | 0 to 80% | B (More than 0-Less than 80) | B (More than 0-Less than 80) | 57 to 70 °C
8 | C[C@@H]1OC(=O)[C@@H](NC(=O)OC(C)(C)C)COC[C@H](Cc2ccccc2)[C@H]1O [Compound 48, tert-Butyl-(3S,7S,8R,9S)-7-benzyl-8-hydroxy-9-methyl-2-oxo-1,5-dioxonan-3-ylcarbamate] |  |  |  |  |  |  | 62 to 67 °C
9 | COC(=O)/C=C/O[C@@H]1[C@@H](Cc2ccccc2)COC[C@H](NC(=O)OC(C)(C)C)C(=O)O[C@H]1C [Compound 49, (E)-methyl 3-(((3S,6S,7R,8S)-8-benzyl-3-((tert-butoxycarbonyl)amino)-6-methyl-4-oxo-1,5-dioxonan-7-yl)oxy)acrylate] |  |  |  |  |  |  | 128 to 129 °C
10 | C[C@@H]1OC(=O)[C@@H](NC(=O)OC(C)(C)C)COC[C@H](Cc2ccccc2)[C@H]1O/C=C/C(=O)OCc1ccccc1 [Compound 51, (E)-benzyl 3-(((3S,6S,7R,8S)-8-benzyl-3-((tert-butoxycarbonyl)amino)-6-methyl-4-oxo-1,5-dioxonan-7-yl)oxy)acrylate] |  |  |  |  |  |  | 182 to 185 °C
11 | C[C@@H]1OC(=O)[C@@H](NC(=O)OC(C)(C)C)COC[C@H](Cc2ccccc2)[C@H]1OCCC(=O)N(C)C [Compound 53, tert-butyl ((3S,7S,8R,9S)-7-benzyl-8-(3-(dimethylamino)-3-oxopropoxy)-9-methyl-2-oxo-1,5-dioxonan-3-yl)carbamate] |  |  |  |  |  |  | 142 to 143 °C
12 | C[C@@H]1OC(=O)[C@@H](N(C(=O)OC(C)(C)C)C(=O)OC(C)(C)C)COC[C@H](Cc2ccccc2)[C@H]1O [Compound 57, tert-butyl N-[(3S,7S,8R,9S)-7-benzyl-8-hydroxy-9-methyl-2-oxo-1,5-dioxonan-3-yl]-N-tert-butoxycarbonylcarbamate] |  |  |  |  |  |  | 139 to 141 °C
13 | C[C@@H]1OC(=O)[C@@H](NC(=O)OC(C)(C)C)COC[C@H](Cc2ccccc2)[C@H]1OC(=O)c1ccccc1 [Compound 61] |  |  |  |  |  |  | 54 to 63 °C
14 | C[C@@H]1OC(=O)[C@@H](NC(=O)OC(C)(C)C)COC[C@H](Cc2ccccc2)[C@H]1OC(=O)C1CC1 [Compound 62] |  |  |  |  |  |  | 72 to 85 °C
15 | C=CCO[C@@H]1[C@@H](Cc2ccccc2)COC[C@H](N(C(=O)OC(C)(C)C)C(=O)OC(C)(C)C)C(=O)O[C@H]1C [Compound 65] |  |  |  |  |  |  | 88 to 90 °C
16 | C[C@@H]1OC(=O)[C@@H](N(C(=O)OC(C)(C)C)C(=O)OC(C)(C)C)COC[C@H](Cc2ccccc2)[C@H]1OC/C=C/C(F)(F)F [Compound 66] |  |  |  |  |  |  | 131 to 133 °C
17 | C/C=C/C(C)O[C@@H]1[C@@H](Cc2ccccc2)COC[C@H](N(C(=O)OC(C)(C)C)C(=O)OC(C)(C)C)C(=O)O[C@H]1C (stereo partly shown) [Compound 67] |  |  |  |  |  |  | 80 to 83 °C
18 | CCCO[C@@H]1[C@@H](Cc2ccccc2)COC[C@H](N(C(=O)OC(C)(C)C)C(=O)OC(C)(C)C)C(=O)O[C@H]1C [Compound 68] |  |  |  |  |  |  | 98 to 100 °C
19 | C[C@@H]1OC(=O)[C@@H](N(C(=O)OC(C)(C)C)C(=O)OC(C)(C)C)COC[C@H](Cc2ccccc2)[C@H]1OCCCC(F)(F)F [Compound 69] |  |  |  |  |  |  | 100 to 102 °C
20 | CC/C=C/CO[C@@H]1[C@@H](Cc2ccccc2)COC[C@H](N(C(=O)OC(C)(C)C)C(=O)OC(C)(C)C)C(=O)O[C@H]1C [Compound 71] |  |  |  |  |  |  | 127 to 129 °C
21 | CCCCCO[C@@H]1[C@@H](Cc2ccccc2)COC[C@H](N(C(=O)OC(C)(C)C)C(=O)OC(C)(C)C)C(=O)O[C@H]1C [Compound 72] |  |  |  |  |  |  | 94 to 97 °C
22 | C=C(C)CO[C@@H]1[C@@H](Cc2ccccc2)COC[C@H](N(C(=O)OC(C)(C)C)C(=O)OC(C)(C)C)C(=O)O[C@H]1C [Compound 82, tert-butyl N-[(3S,7S,8R,9S)-7-benzyl-9-methyl-8-(2-methylallyloxy)-2-oxo-1,5-dioxonan-3-yl]-N-tert-butoxycarbonylcarbamate] |  |  |  |  |  |  | 109 to 110 °C
